Patent EP4755888A1 (ILAb Co., Ltd., priority 2023, dated 2025)

Molecular target: PD-1/PD-L1 (Homo sapiens, UniProt Q9NZQ7)
Experiment: TR-FRET PD-1/PD-L1 binding inhibition at the molecular level (free proteins)
Details: Tag1-PD-L1 and Tag2-PD-1 proteins, twelve concentrations from 200 nM, 2 hours at room temperature, read-out: FRET assay (IC50)
Method in brief: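 HTRF read-out at 665/620 nm after 2 h at room temperature. Detection used anti-Tag1 Eu cryptate plus anti-Tag2 XL665 antibodies. Tagged PD-L1 and PD-1 proteins were pre-mixed with compound across twelve […] 1:2 dilutions starting at 200 nM.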

Sequence of PD-1/PD-L1 (Q9NZQ7 19-238 limits assumed): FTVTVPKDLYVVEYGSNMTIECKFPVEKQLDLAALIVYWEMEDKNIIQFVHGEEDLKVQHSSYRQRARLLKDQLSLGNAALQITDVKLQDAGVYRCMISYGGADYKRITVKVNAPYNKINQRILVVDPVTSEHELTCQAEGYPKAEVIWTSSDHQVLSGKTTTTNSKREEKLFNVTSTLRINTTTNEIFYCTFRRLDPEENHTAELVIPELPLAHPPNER

| Structure (SMILES) | IC50 [µM] |
| --- | --- |
| O=C(Nc1cccc(-c2cccc(Nc3nc(C(F)F)nc4cc(CN5CC(F)(F)C5)cnc34)c2Cl)c1Cl)c1cc2n(n1)CCC[C@@H]2N1CCC(O)CC1 [Compound 271, (S)-N-(2,2'-dichloro-3'-((7-((3,3-difluoroazetidin-1-yl)methyl)-2-(difluoromethyl)pyrido[3,2-d]pyrimidin-4-yl)amino)-[1,1'-biphenyl]-3-yl)-4-(4-hydroxypiperidin-1-yl)-4,5,6,7-tetrahydropyrazolo[1,5-a]pyridine-2-carboxamide] | 0.01 to 0.1 |
| O=C(Nc1cccc(-c2cccc(Nc3nc(C(F)F)nc4cc(CN5CC(F)(F)C5)cnc34)c2Cl)c1Cl)c1cc2n(n1)CCC[C@H]2N1CCC(O)CC1 [Compound 272, (R)-N-(2,2'-dichloro-3'-((7-((3,3-difluoroazetidin-1-yl)methyl)-2-(difluoromethyl)pyrido[3,2-d]pyrimidin-4-yl)amino)-[1,1'-biphenyl]-3-yl)-4-(4-hydroxypiperidin-1-yl)-4,5,6,7-tetrahydropyrazolo[1,5-a]pyridine-2-carboxamide] | 0.01 to 0.1 |
| O=C(Nc1cccc(-c2cccc(Nc3nc(C(F)(F)F)nc4cccnc34)c2Cl)c1Cl)c1cc2n(n1)CCC[C@H]2N1CCC(C(=O)O)CC1 [Compound 274, (R)-1-(2-((2,2'-dichloro-3'-((2-(trifluoromethyl)pyrido[3,2-d]pyrimidin-4-yl)amino)-[1,1'-biphenyl]-3-yl)carbamoyl)-4,5,6,7-tetrahydropyrazolo[1,5-a]pyridin-4-yl)piperidine-4-carboxylic acid] | 0.01 to 0.1 |
| CC(C)(N[C@@H]1CCCn2nc(C(=O)Nc3cccc(-c4cccc(Nc5nc(C(F)(F)F)nc6cccnc56)c4Cl)c3Cl)cc21)C(=O)O [Compound 276, (R)-2-((2-((2,2'-dichloro-3'-((2-(trifluoromethyl)pyrido[3,2-d]pyrimidin-4-yl)amino)-[1,1'-biphenyl]-3-yl)carbamoyl)-4,5,6,7-tetrahydropyrazolo[1,5-a]pyridin-4-yl)amino)-2-methylpropanoic acid] | < 0.01 |
| O=C(Nc1cccc(-c2cccc(Nc3nc(C(F)(F)F)nc4cccnc34)c2Cl)c1Cl)c1cc2n(n1)CCC[C@@H]2N1CC(C(=O)O)C1 [Compound 277, (S)-1-(2-((2,2'-dichloro-3'-((2-(trifluoromethyl)pyrido[3,2-d]pyrimidin-4-yl)amino)-[1,1'-biphenyl]-3-yl)carbamoyl)-4,5,6,7-tetrahydropyrazolo[1,5-a]pyridin-4-yl)azetidine-3-carboxylic acid] | 0.01 to 0.1 |
| O=C(Nc1cccc(-c2cccc(Nc3nc(C(F)(F)F)nc4cccnc34)c2Cl)c1Cl)c1cc2n(n1)CCC[C@H]2N1CC(C(=O)O)C1 [Compound 278, (R)-1-(2-((2,2'-dichloro-3'-((2-(trifluoromethyl)pyrido[3,2-d]pyrimidin-4-yl)amino)-[1,1'-biphenyl]-3-yl)carbamoyl)-4,5,6,7-tetrahydropyrazolo[1,5-a]pyridin-4-yl)azetidine-3-carboxylic acid] | 0.01 to 0.1 |
| Cc1nc(Nc2cccc(-c3cccc(NC(=O)c4cc5n(n4)CCC[C@@H]5NC(C)(C)C(=O)O)c3Cl)c2Cl)c2ncccc2n1 [Compound 279, (S)-2-((2-((2,2'-dichloro-3'-((2-methylpyrido[3,2-d]pyrimidin-4-yl)amino)-[1,1'-biphenyl]-3-yl)carbamoyl)-4,5,6,7-tetrahydropyrazolo[1,5-a]pyridin-4-yl)amino)-2-methylpropanoic acid] | 0.01 to 0.1 |
| Cc1nc(Nc2cccc(-c3cccc(NC(=O)c4cc5n(n4)CCC[C@H]5NC(C)(C)C(=O)O)c3Cl)c2Cl)c2ncccc2n1 [Compound 280, (R)-2-((2-((2,2'-dichloro-3'-((2-methylpyrido[3,2-d]pyrimidin-4-yl)amino)-[1,1'-biphenyl]-3-yl)carbamoyl)-4,5,6,7-tetrahydropyrazolo[1,5-a]pyridin-4-yl)amino)-2-methylpropanoic acid] | < 0.01 |
| Cc1nc(Nc2cccc(-c3cccc(NC(=O)c4cc5n(n4)CCC[C@@H]5N4CC(C(=O)O)C4)c3Cl)c2Cl)c2ncccc2n1 [Compound 281, (S)-1-(2-((2,2'-dichloro-3'-((2-methylpyrido[3,2-d]pyrimidin-4-yl)amino)-[1,1'-biphenyl]-3-yl)carbamoyl)-4,5,6,7-tetrahydropyrazolo[1,5-a]pyridin-4-yl)azetidine-3-carboxylic acid] | < 0.01 |
| Cc1c(NC(=O)c2cc3n(n2)CCC[C@@H]3N2CCC(O)CC2)cccc1-c1cccc(Nc2nc(C(F)(F)F)nc3cccnc23)c1C [Compound 285, (S)-N-(2,2'-dimethyl-3'-((2-(trifluoromethyl)pyrido[3,2-d]pyrimidin-4-yl)amino)-[1,1'-biphenyl]-3-yl)-4-(4-hydroxypiperidin-1-yl)-4,5,6,7-tetrahydropyrazolo[1,5-a]pyridine-2-carboxamide] | 0.01 to 0.1 |

Results, then the molecule that gave them:

| IC50 [µM] | Structure (SMILES) |
| --- | --- |
| 0.01 to 0.1 | O=C(Nc1cccc(-c2cccc(Nc3nc(C(F)(F)F)nc4cccnc34)c2Cl)c1Cl)c1cc2n(n1)CCC[C@@H]2N1CCC(C(=O)O)CC1 [Compound 273, (S)-1-(2-((2,2'-dichloro-3'-((2-(trifluoromethyl)pyrido[3,2-d]pyrimidin-4-yl)amino)-[1,1'-biphenyl]-3-yl)carbamoyl)-4,5,6,7-tetrahydropyrazolo[1,5-a]pyridin-4-yl)piperidine-4-carboxylic acid] |
| 0.01 to 0.1 | CC(C)(N[C@H]1CCCn2nc(C(=O)Nc3cccc(-c4cccc(Nc5nc(C(F)(F)F)nc6cccnc56)c4Cl)c3Cl)cc21)C(=O)O [Compound 275, (S)-2-((2-((2,2'-dichloro-3'-((2-(trifluoromethyl)pyrido[3,2-d]pyrimidin-4-yl)amino)-[1,1'-biphenyl]-3-yl)carbamoyl)-4,5,6,7-tetrahydropyrazolo[1,5-a]pyridin-4-yl)amino)-2-methylpropanoic acid] |
| < 0.01 | Cc1nc(Nc2cccc(-c3cccc(NC(=O)c4cc5n(n4)CCC[C@H]5N4CC(C(=O)O)C4)c3Cl)c2Cl)c2ncccc2n1 [Compound 282, (R)-1-(2-((2,2'-dichloro-3'-((2-methylpyrido[3,2-d]pyrimidin-4-yl)amino)-[1,1'-biphenyl]-3-yl)carbamoyl)-4,5,6,7-tetrahydropyrazolo[1,5-a]pyridin-4-yl)azetidine-3-carboxylic acid] |
| 0.01 to 0.1 | O=C(Nc1cccc(-c2cccc(Nc3nccc4cc(CN5CC(F)C5)cnc34)c2Cl)c1Cl)c1cc2n(n1)CCC[C@@H]2N1CCC(C(=O)O)CC1 [Compound 283, (S)-1-(2-((2,2'-dichloro-3'-((3-((3-fluoroazetidin-1-yl)methyl)-1,7-naphthyridin-8-yl)amino)-[1,1'-biphenyl]-3-yl)carbamoyl)-4,5,6,7-tetrahydropyrazolo[1,5-a]pyridin-4-yl)piperidine-4-carboxylic acid] |
| 0.01 to 0.1 | O=C(Nc1cccc(-c2cccc(Nc3nccc4cc(CN5CC(F)C5)cnc34)c2Cl)c1Cl)c1cc2n(n1)CCC[C@H]2N1CCC(C(=O)O)CC1 [Compound 284, (R)-1-(2-((2,2'-dichloro-3'-((3-((3-fluoroazetidin-1-yl)methyl)-1,7-naphthyridin-8-yl)amino)-[1,1'-biphenyl]-3-yl)carbamoyl)-4,5,6,7-tetrahydropyrazolo[1,5-a]pyridin-4-yl)piperidine-4-carboxylic acid] |
